In the supplement of paper PMC10307832:

Key:
Experiment in all cases: relative viability (nuclei count vs DMSO), 5 days (fraction); higher = more cells survive
LXF-289 = test system: LXF-289
Method in brief: (§1)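 Relative viability divides the nuclei count in treated wells by that in vehicle wells. Lung cancer cell lines were seeded in 1536-well plates, dosed by pin tool the next day, and fixed and stained after 5 days in one step with final 0.05% Triton X-100, 1% formaldehyde and 1 ug/ml Hoechst. Dosing was a single drug or a fixed anchor-drug dose plus five library-drug doses (not always all listed) in √10 steps, and values are medians of duplicate plates imaged at 4×.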

NCI-H2170 = test system: NCI-H2170
Method in brief: as §1

NCI-H1944 = test system: NCI-H1944
Method in brief: as §1

UMC-11 = test system: UMC-11
Method in brief: as §1

NCI-H1915 = test system: NCI-H1915
Method in brief: as §1

NCI-H1755 = test system: NCI-H1755
Method in brief: as §1

NCI-H1792 = test system: NCI-H1792
Method in brief: as §1

SK-LU-1 = test system: SK-LU-1
Method in brief: as §1

HCC-366 = test system: HCC-366
Method in brief: as §1

COR-L 105 = test system: COR-L 105
Method in brief: as §1

NCI-H1793 = test system: NCI-H1793
Method in brief: as §1

NCI-H358 = test system: NCI-H358
Method in brief: as §1

NCI-H2085 = test system: NCI-H2085
Method in brief: as §1

LC-2-ad = test system: LC-2-ad
Method in brief: as §1

EPLC-272H = test system: EPLC-272H
Method in brief: as §1

LU99A = test system: LU99A
Method in brief: as §1

HCC-78 = test system: HCC-78
Method in brief: as §1

SW 900 = test system: SW 900
Method in brief: as §1

A-427 = test system: A-427
Method in brief: as §1

NCI-H1975 = test system: NCI-H1975
Method in brief: as §1

LCLC-97TM1 = test system: LCLC-97TM1
Method in brief: as §1

HOP-62 = test system: HOP-62
Method in brief: as §1

NCI-H460 = test system: NCI-H460
Method in brief: as §1

C=C1C(=O)O[C@@H](CCCCCCCC)[C@@H]1C(=O)O [C-75] + COc1cccc2cc(-c3nc([C@H]4CC[C@H](C(=O)O)CC4)n4ncnc(N)c34)[nH]c12 [OSI-027] (partner 0.5 µM)
relative viability (LXF-289; first compound 0.08 µM): 0.844
relative viability (LXF-289; first compound 0.253 µM): 0.758
relative viability (LXF-289; first compound 0.8 µM): 0.719
relative viability (LXF-289; first compound 2.53 µM): 0.642
relative viability (LXF-289; first compound 8 µM): 0.713
relative viability (NCI-H2170; first compound 0.08 µM): 0.797
relative viability (NCI-H2170; first compound 0.253 µM): 0.78
relative viability (NCI-H2170; first compound 0.8 µM): 0.706
relative viability (NCI-H2170; first compound 2.53 µM): 0.321
relative viability (NCI-H2170; first compound 8 µM): 0.703
relative viability (NCI-H1944; first compound 0.08 µM): 0.441
relative viability (NCI-H1944; first compound 0.253 µM): 0.426
relative viability (NCI-H1944; first compound 0.8 µM): 0.392
relative viability (NCI-H1944; first compound 8 µM): 0.448
relative viability (UMC-11; first compound 0.08 µM): 0.457
relative viability (UMC-11; first compound 0.253 µM): 0.579
relative viability (UMC-11; first compound 0.8 µM): 0.477
relative viability (UMC-11; first compound 2.53 µM): 0.461
relative viability (UMC-11; first compound 8 µM): 0.417
relative viability (NCI-H1915; first compound 0.08 µM): 0.656
relative viability (NCI-H1915; first compound 0.253 µM): 0.588
relative viability (NCI-H1915; first compound 0.8 µM): 0.61
relative viability (NCI-H1915; first compound 2.53 µM): 0.382
relative viability (NCI-H1915; first compound 8 µM): 0.588
relative viability (NCI-H1755; first compound 0.08 µM): 0.767
relative viability (NCI-H1755; first compound 0.253 µM): 0.724
relative viability (NCI-H1755; first compound 0.8 µM): 0.711
relative viability (NCI-H1755; first compound 2.53 µM): 0.604
relative viability (NCI-H1755; first compound 8 µM): 0.72
relative viability (NCI-H1792; first compound 0.08 µM): 0.694
relative viability (NCI-H1792; first compound 0.253 µM): 0.695
relative viability (NCI-H1792; first compound 0.8 µM): 0.636
relative viability (NCI-H1792; first compound 2.53 µM): 0.419
relative viability (NCI-H1792; first compound 8 µM): 0.712
relative viability (SK-LU-1; first compound 0.08 µM): 0.348
relative viability (SK-LU-1; first compound 0.253 µM): 0.379
relative viability (SK-LU-1; first compound 0.8 µM): 0.416
relative viability (SK-LU-1; first compound 2.53 µM): 0.319
relative viability (SK-LU-1; first compound 8 µM): 0.308
relative viability (HCC-366; first compound 0.08 µM): 1.06
relative viability (HCC-366; first compound 0.253 µM): 1.31
relative viability (HCC-366; first compound 0.8 µM): 0.897
relative viability (HCC-366; first compound 8 µM): 0.834
relative viability (COR-L 105; first compound 0.08 µM): 0.709
relative viability (COR-L 105; first compound 0.253 µM): 0.757
relative viability (COR-L 105; first compound 0.8 µM): 0.648
relative viability (COR-L 105; first compound 2.53 µM): 0.515
relative viability (COR-L 105; first compound 8 µM): 0.696
relative viability (NCI-H1793; first compound 0.08 µM): 0.337
relative viability (NCI-H1793; first compound 0.253 µM): 0.284
relative viability (NCI-H1793; first compound 0.8 µM): 0.241
relative viability (NCI-H1793; first compound 2.53 µM): 0.224
relative viability (NCI-H1793; first compound 8 µM): 0.342
relative viability (NCI-H358; first compound 0.08 µM): 0.714
relative viability (NCI-H358; first compound 0.253 µM): 0.871
relative viability (NCI-H358; first compound 0.8 µM): 0.691
relative viability (NCI-H358; first compound 2.53 µM): 0.383
relative viability (NCI-H358; first compound 8 µM): 0.624
relative viability (NCI-H2085; first compound 0.08 µM): 0.882
relative viability (NCI-H2085; first compound 0.253 µM): 0.883
relative viability (NCI-H2085; first compound 0.8 µM): 0.689
relative viability (NCI-H2085; first compound 2.53 µM): 0.757
relative viability (NCI-H2085; first compound 8 µM): 0.73
relative viability (LC-2-ad; first compound 0.08 µM): 0.745
relative viability (LC-2-ad; first compound 0.253 µM): 0.799
relative viability (LC-2-ad; first compound 0.8 µM): 0.747
relative viability (LC-2-ad; first compound 2.53 µM): 0.646
relative viability (LC-2-ad; first compound 8 µM): 0.686
relative viability (EPLC-272H; first compound 0.08 µM): 0.271
relative viability (EPLC-272H; first compound 0.253 µM): 0.302
relative viability (EPLC-272H; first compound 0.8 µM): 0.278
relative viability (EPLC-272H; first compound 2.53 µM): 0.227
relative viability (EPLC-272H; first compound 8 µM): 0.235
relative viability (LU99A; first compound 0.08 µM): 0.328
relative viability (LU99A; first compound 0.253 µM): 0.28
relative viability (LU99A; first compound 0.8 µM): 0.273
relative viability (LU99A; first compound 2.53 µM): 0.252
relative viability (LU99A; first compound 8 µM): 0.325
relative viability (HCC-78; first compound 0.08 µM): 0.354
relative viability (HCC-78; first compound 0.253 µM): 0.42
relative viability (HCC-78; first compound 0.8 µM): 0.376
relative viability (HCC-78; first compound 2.53 µM): 0.329
relative viability (HCC-78; first compound 8 µM): 0.422
relative viability (SW 900; first compound 0.08 µM): 0.555
relative viability (SW 900; first compound 0.253 µM): 0.842
relative viability (SW 900; first compound 0.8 µM): 0.441
relative viability (SW 900; first compound 2.53 µM): 0.509
relative viability (SW 900; first compound 8 µM): 0.45
relative viability (A-427; first compound 0.08 µM): 0.516
relative viability (A-427; first compound 0.253 µM): 0.51
relative viability (A-427; first compound 0.8 µM): 0.488
relative viability (A-427; first compound 2.53 µM): 0.439
relative viability (A-427; first compound 8 µM): 0.39
relative viability (NCI-H1975; first compound 0.08 µM): 0.842
relative viability (NCI-H1975; first compound 0.253 µM): 0.672
relative viability (NCI-H1975; first compound 0.8 µM): 0.679
relative viability (NCI-H1975; first compound 2.53 µM): 0.436
relative viability (NCI-H1975; first compound 8 µM): 0.717
relative viability (LCLC-97TM1; first compound 0.08 µM): 0.554
relative viability (LCLC-97TM1; first compound 0.253 µM): 0.636
relative viability (LCLC-97TM1; first compound 0.8 µM): 0.543
relative viability (LCLC-97TM1; first compound 2.53 µM): 0.192
relative viability (LCLC-97TM1; first compound 8 µM): 0.479
relative viability (HOP-62; first compound 0.08 µM): 0.816
relative viability (HOP-62; first compound 0.253 µM): 0.825
relative viability (HOP-62; first compound 0.8 µM): 0.865
relative viability (HOP-62; first compound 2.53 µM): 0.738
relative viability (HOP-62; first compound 8 µM): 0.705
relative viability (NCI-H460; first compound 0.08 µM): 0.664
relative viability (NCI-H460; first compound 0.253 µM): 0.751
relative viability (NCI-H460; first compound 0.8 µM): 0.59
relative viability (NCI-H460; first compound 8 µM): 0.527
